Our source for the IC50 values is patent publication US20250215029A1 (Recludix Pharma, Inc., priority 2022, published 2025).

Like-named read-outs stand apart in the source and are kept apart here.

Experiment [1] addresses T1, Recombinant STAT3 protein (STAT3 (G127-I722)) (Homo sapiens, UniProt P40763).
T1 construct: Recombinant STAT3 protein (STAT3 (G127-I722))
Nature of the experiment: STAT3 Fluorescence Polarization (FP) Assay. Format: binding. To be noted: STAT3 (G127-I722) 25 nM, probe 5-FAM-GpYLPQTV-NH2 2 nM, 45-minute incubation; read-out: STAT3 (FP assay IC50 class). In outline:
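Displacement of a 2 nM 5-FAM-labelled pY peptide (GpYLPQTV) from 25 nM recombinant STAT3 (G127-I722) was monitored by fluorescence polarization. Incubation lasted 45 min at room temperature in pH 7.4 HEPES buffer containing 1% DMSO.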

The target in experiment [2] is T2, Recombinant STAT6 protein (STAT6 (W123-T658)) (Homo sapiens, UniProt P42226).
T2 construct: Recombinant STAT6 protein (STAT6 (W123-T658))
T2 sequence (P42226 123-658): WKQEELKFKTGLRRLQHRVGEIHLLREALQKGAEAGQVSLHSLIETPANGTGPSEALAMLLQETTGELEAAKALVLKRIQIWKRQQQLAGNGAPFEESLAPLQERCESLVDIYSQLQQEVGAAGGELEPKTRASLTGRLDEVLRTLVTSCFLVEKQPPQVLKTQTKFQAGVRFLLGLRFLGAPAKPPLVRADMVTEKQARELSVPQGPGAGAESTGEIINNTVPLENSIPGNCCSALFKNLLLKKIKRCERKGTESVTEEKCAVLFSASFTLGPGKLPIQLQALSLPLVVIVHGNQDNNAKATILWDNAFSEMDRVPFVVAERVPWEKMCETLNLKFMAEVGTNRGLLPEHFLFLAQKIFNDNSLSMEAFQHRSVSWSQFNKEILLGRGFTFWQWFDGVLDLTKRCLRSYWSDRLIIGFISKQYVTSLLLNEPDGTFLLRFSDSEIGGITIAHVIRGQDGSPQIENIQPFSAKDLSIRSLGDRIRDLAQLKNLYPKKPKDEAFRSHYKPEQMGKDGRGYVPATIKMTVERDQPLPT
Nature of the experiment: STAT6 Fluorescence Polarization (FP) Assay. Format: binding. The following applies: STAT6 (W123-T658) 250 nM, 45-minute incubation, read-out: STAT6 (FP assay IC50 class). In a few lines:
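Protein-probe mix (250 nM STAT6 W123-T658, 2 nM 5-FAM-pTyr peptide) in 10 mM HEPES pH 7.4, 50 mM NaCl, 1 mM EDTA, 0.05% Tween 20, 2 mM DTT; added to compound dilution series, 1% DMSO final; 45 min RT; FP read; IC50 via nonlinear regression.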
Background: Fluorescence polarisation rises when a labelled molecule tumbles more slowly, as on binding a larger partner.

T1 sequence (P40763 127-722): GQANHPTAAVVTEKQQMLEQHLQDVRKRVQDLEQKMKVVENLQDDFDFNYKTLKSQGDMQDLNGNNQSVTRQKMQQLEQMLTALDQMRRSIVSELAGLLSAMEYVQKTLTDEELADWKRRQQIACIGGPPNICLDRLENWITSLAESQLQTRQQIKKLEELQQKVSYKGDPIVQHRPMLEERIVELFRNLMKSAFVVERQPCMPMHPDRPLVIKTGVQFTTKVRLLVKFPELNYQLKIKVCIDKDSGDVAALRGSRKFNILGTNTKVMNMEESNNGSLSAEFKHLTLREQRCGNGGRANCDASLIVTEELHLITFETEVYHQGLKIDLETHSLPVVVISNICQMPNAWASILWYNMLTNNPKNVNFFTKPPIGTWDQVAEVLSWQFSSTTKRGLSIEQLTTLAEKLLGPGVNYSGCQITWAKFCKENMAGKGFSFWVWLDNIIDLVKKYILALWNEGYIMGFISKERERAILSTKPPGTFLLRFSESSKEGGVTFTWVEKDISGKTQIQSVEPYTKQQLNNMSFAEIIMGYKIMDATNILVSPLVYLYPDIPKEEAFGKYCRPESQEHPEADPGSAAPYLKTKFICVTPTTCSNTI

In general, IC50 refers to the concentration that gives 50% inhibition. On to `O=C(N[C@H]1CCC[C@H]2CC[C@@H](C(=O)N3CC(c4cnccc4N4CC(OC(F)F)C4)C3)N2C1=O)c1cc2cc([C@@H](F)P(=O)(O)O)ccc2s1` [Compound 852, ((S)-(2-(((3S,6S,9aS)-3-(3-(4-(3-(difluoromethoxy)azetidin-1-yl)pyridin-3-yl)azetidine-1-carbonyl)-5-oxooctahydro-1H-pyrrolo[1,2-a]azepin-6-yl)carbamoyl)benzo [b]thiophen-5-yl)fluoromethyl) phosphonic acid], for which the IC50 in experiment [1] is under 100 nM; in experiment [2] (probe 5-FAM-Ap[…]-NH2 2 nM) it was 0.3 to 3 µM.

Take `O=C(N[C@H]1CCC[C@H]2CC[C@@H](C(=O)N3CC(c4cnccc4-n4ccnc4)C3)N2C1=O)c1cc2cc([C@@H](F)P(=O)(O)O)ccc2s1` [Compound 853, ((S)-(2-(((3S,6S,9aS)-3-(3-(4-(1H-imidazol-1-yl)pyridin-3-yl)azetidine-1-carbonyl)-5-oxooctahydro-1H-pyrrolo[1,2-a]azepin-6-yl)carbamoyl)benzo [b]thiophen-5-yl)fluoromethyl) phosphonic acid]: the IC50 fell in the range of 1000 to 10000 nM in experiment [1] and 3 to 30 µM in experiment [2] (probe 5-FAM-Ap[…]-NH2 2 nM).

Consider `COCCN(C)c1ccncc1C1CN(C(=O)[C@@H]2CC[C@@H]3CCC[C@H](NC(=O)c4cc5cc([C@@H](F)P(=O)(O)O)ccc5s4)C(=O)N32)C1` [Compound 855, ((S)-fluoro(2-(((3S,6S,9aS)-3-(3-(4-((2-methoxyethyl) (methyl)amino)pyridin-3-yl)azetidine-1-carbonyl)-5-oxooctahydro-1H-pyrrolo[1,2-a]azepin-6-yl)carbamoyl)benzo [b]thiophen-5-yl)methyl) phosphonic acid], for which the results for the IC50 in experiment [1] and in experiment [2] (probe 5-FAM-Ap[…]-NH2 2 nM) were under 100 nM and 3 to 30 µM, respectively.

Consider `COCC1CN(c2ccncc2C2CN(C(=O)[C@@H]3CC[C@@H]4CCC[C@H](NC(=O)c5cc6cc([C@@H](F)P(=O)(O)O)ccc6s5)C(=O)N43)C2)C1` [Compound 856, ((S)-fluoro(2-(((3S,6S,9aS)-3-(3-(4-(3-(methoxymethyl)azetidin-1-yl)pyridin-3-yl)azetidine-1-carbonyl)-5-oxooctahydro-1H-pyrrolo[1,2-a]azepin-6-yl)carbamoyl)benzo [b]thiophen-5-yl)methyl) phosphonic acid], for which the IC50 was under 100 nM in experiment [1] and 0.3 to 3 µM in experiment [2] (probe 5-FAM-Ap[…]-NH2 2 nM).

In the case of `COC1CN(c2ccncc2C2CN(C(=O)[C@@H]3CC[C@@H]4CCC[C@H](NC(=O)c5cc6cc([C@@H](F)P(=O)(O)O)ccc6s5)C(=O)N43)C2)C1` [Compound 859, ((S)-fluoro(2-(((3S,6S,9aS)-3-(3-(4-(3-methoxyazetidin-1-yl)pyridin-3-yl)azetidine-1-carbonyl)-5-oxooctahydro-1H-pyrrolo[1,2-a]azepin-6-yl)carbamoyl)benzo [b]thiophen-5-yl)methyl) phosphonic acid], the IC50 in experiment [1] is under 100 nM; in experiment [2] (probe 5-FAM-Ap[…]-NH2 2 nM) it was 0.3 to 3 µM.

In the case of `C[C@@H]1COCCN1c1ccncc1C1CN(C(=O)[C@@H]2CC[C@@H]3CCC[C@H](NC(=O)c4cc5cc(CP(=O)(O)O)ccc5s4)C(=O)N32)C1` [Compound 860, ((2-(((3S,6S,9aS)-3-(3-(4-((R)-3-methylmorpholino)pyridin-3-yl)azetidine-1-carbonyl)-5-oxooctahydro-1H-pyrrolo[1,2-a]azepin-6-yl)carbamoyl)benzo [b]thiophen-5-yl)methyl) phosphonic acid], the IC50 in experiment [1] fell in the range of 100 to 1000 nM; in experiment [2] (probe 5-FAM-Ap[…]-NH2 2 nM), 3 to 30 µM.

On to `CN(C)c1ncncc1C1CN(C(=O)[C@@H]2CC[C@@H]3CCC[C@H](NC(=O)c4cc5cc(CP(=O)(O)O)ccc5s4)C(=O)N32)C1` [Compound 863, ((2-(((3S,6S,9aS)-3-(3-(4-(dimethylamino)pyrimidin-5-yl)azetidine-1-carbonyl)-5-oxooctahydro-1H-pyrrolo[1,2-a]azepin-6-yl)carbamoyl)benzo [b]thiophen-5-yl)methyl) phosphonic acid], for which the figures for the IC50 in experiment [1] and in experiment [2] (probe 5-FAM-Ap[…]-NH2 2 nM) were under 100 nM and 3 to 30 µM, respectively.

For `O=C(N[C@H]1CCC[C@H]2CC[C@@H](C(=O)N3CC(c4cccnc4)C3)N2C1=O)c1cc2cc(CP(=O)(O)O)c(F)cc2[nH]1` [Compound 864, ((6-fluoro-2-(((3S,6S,9aS)-5-oxo-3-(3-(pyridin-3-yl)azetidine-1-carbonyl)octahydro-1H-pyrrolo[1,2-a]azepin-6-yl)carbamoyl)-1H-indol-5-yl)methyl) phosphonic acid], the IC50 was over 10000 nM in experiment [1] and 3 to 30 µM in experiment [2] (probe 5-FAM-Ap[…]-NH2 2 nM).

On to `O=C(N[C@H]1CCCC[C@H]2CC[C@@H](C(=O)N3CCC(c4cc[nH]c(=O)c4)C3)N2C1=O)c1ccc2ccc(C(F)(F)P(=O)(O)O)cc2c1` (stereo partly drawn) [Compound 866, (difluoro(7-(((3S,6S,10aS)-5-oxo-3-(3-(2-oxo-1,2-dihydropyridin-4-yl)pyrrolidine-1-carbonyl)decahydropyrrolo[1,2-a]azocin-6-yl)carbamoyl)naphthalen-2-yl)methyl) phosphonic acid], for which the results for the 50% inhibitory concentration (IC50) in experiment [1] and in experiment [2] (probe 5-FAM-Ap[…]-NH2 2 nM) were 100 to 1000 nM and at most 0.3 µM, respectively.

Turning to `O=C(N[C@H]1CCC[C@H]2CC[C@@H](C(=O)N3CC(c4cccnc4)C3)N2C1=O)c1cc2cc([C@H](F)P(=O)(O)O)ccc2s1` [Compound 870, ((R)-fluoro(2-(((3S,6S,9aS)-5-oxo-3-(3-(pyridin-3-yl)azetidine-1-carbonyl)octahydro-1H-pyrrolo[1,2-a]azepin-6-yl)carbamoyl)benzo [b]thiophen-5-yl)methyl) phosphonic acid], the results for the IC50 in experiment [1] and in experiment [2] (probe 5-FAM-Ap[…]-NH2 2 nM) were under 100 nM and 3 to 30 µM, respectively.

For `O=C(N[C@H]1CCC[C@H]2CC[C@@H](C(=O)N3CC(c4cccnc4)C3)N2C1=O)c1cc2cc([C@@H](F)P(=O)(O)O)ccc2s1` [Compound 873, ((S)-fluoro(2-(((3S,6S,9aS)-5-oxo-3-(3-(802yridine-3-yl)azetidine-1-carbonyl)octahydro-1H-pyrrolo[1,2-a]azepin-6-yl)carbamoyl)benzo [b]thiophen-5-yl)methyl) phosphonic acid], the IC50 was under 100 nM in experiment [1] and 3 to 30 µM in experiment [2] (probe 5-FAM-ApYKPFQDLI-NH2 2 nM).

Take `O=C(N[C@H]1CCCC[C@H]2CC[C@@H](C(=O)N3CC(c4cc[nH]c(=O)c4)CC34CC4)N2C1=O)c1ccc2ccc(C(F)(F)P(=O)(O)O)cc2c1` (stereo partly drawn) [Compound 877, (difluoro(7-(((3S,6S,10aS)-5-oxo-3-(6-(2-oxo-1,2-dihydropyridin-4-yl)-4-azaspiro[2.4]heptane-4-carbonyl)decahydropyrrolo[1,2-a]azocin-6-yl)carbamoyl)naphthalen-2-yl)methyl) phosphonic acid]: the IC50 is 1000 to 10000 nM in experiment [1] and at most 0.3 µM in experiment [2] (probe 5-FAM-Ap[…]-NH2 2 nM).

With `O=C(N[C@H]1CCCC[C@H]2CC[C@@H](C(=O)N3CC(c4ccccc4)CC34CC4)N2C1=O)c1ccc2ccc(C(F)(F)P(=O)(O)O)cc2c1` (stereo partly drawn) [Compound 880, (difluoro(7-(((3S,6S,10aS)-5-oxo-3-(6-phenyl-4-azaspiro[2.4]heptane-4-carbonyl)decahydropyrrolo[1,2-a]azocin-6-yl)carbamoyl)naphthalen-2-yl)methyl) phosphonic acid], the half-maximal inhibitory concentration (IC50) in experiment [1] was 1000 to 10000 nM; in experiment [2] (probe 5-FAM-Ap[…]-NH2 2 nM), at most 0.3 µM.

Consider `O=C(N[C@H]1CCCC[C@H]2CC[C@@H](C(=O)N3C[C@H](c4cc[nH]c(=O)c4)CC34CC4)N2C1=O)c1ccc2ccc(CP(=O)(O)O)cc2c1` [Compound 882, ((7-(((3S,6S,10aS)-5-oxo-3-((S)-6-(2-oxo-1,2-dihydropyridin-4-yl)-4-azaspiro[2.4]heptane-4-carbonyl)decahydropyrrolo[1,2-a]azocin-6-yl)carbamoyl)naphthalen-2-yl)methyl) phosphonic acid], for which the IC50 in experiment [1] is 1000 to 10000 nM; in experiment [2] (probe 5-FAM-Ap[…]-NH2 2 nM) it was 0.3 to 3 µM.
